For 22 compounds, IC50 results are on record in US20240270759A1, “Preparation of SHP2 phosphatase inhibitors and its applications” (Ya Therapeutics Inc, priority 2021, published 2024).

pIC50: −log10 of the molar value. Where only a bound is given, the exact number is not on record here.

This assay concerns the target T1, SHP2 full-length protein (Homo sapiens, UniProt Q06124).
T1 construct: purchased BPS Bioscience #79330
T1 sequence (Q06124 1-593): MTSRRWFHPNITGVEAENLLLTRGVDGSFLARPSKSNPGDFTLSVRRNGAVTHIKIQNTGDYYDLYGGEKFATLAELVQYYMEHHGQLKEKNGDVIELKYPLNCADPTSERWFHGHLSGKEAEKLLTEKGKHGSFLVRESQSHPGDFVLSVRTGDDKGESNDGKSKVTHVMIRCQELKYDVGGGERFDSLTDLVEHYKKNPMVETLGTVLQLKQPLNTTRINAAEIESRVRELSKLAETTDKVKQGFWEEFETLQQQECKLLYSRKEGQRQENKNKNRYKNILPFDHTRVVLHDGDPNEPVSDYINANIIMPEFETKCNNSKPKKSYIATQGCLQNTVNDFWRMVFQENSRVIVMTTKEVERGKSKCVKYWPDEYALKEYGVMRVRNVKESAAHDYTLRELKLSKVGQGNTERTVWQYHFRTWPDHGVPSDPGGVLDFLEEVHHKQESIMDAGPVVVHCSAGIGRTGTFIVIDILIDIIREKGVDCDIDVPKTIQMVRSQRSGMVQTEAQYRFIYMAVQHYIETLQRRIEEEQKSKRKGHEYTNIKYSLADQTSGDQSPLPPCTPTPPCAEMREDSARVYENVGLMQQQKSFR
Put plainly: SHP2 allosteric inhibition experiment (Homogeneous Full Length SHP-2 Assay Kit). Format: biochemical. The note with it: full-length SHP2 0.06 nM with SHP-2 activating peptide; ten-point, 1 μM to 0.05 nM; read-out: IC50 Values of Compounds Inhibiting SHP2. The text has this: The following further describes and explains the present invention in combination with test examples, but these examples are not meant to limit the scope of the present invention. SHP2 allosteric inhibition experiment
The purpose of this test is to measure the ability of the compounds to inhibit the allosteric activity of the SHP2 full-length protein. Experimental equipment: a centrifuge (5810R) is purchased from Eppendorf Company; pipettes are purchased from Eppendorf Company and Rainin Company, and microplate readers are purchased from BioTek Company of the United States, SynergyH1 multimode microplate reader.
Experimental method: Homogeneous Full Length SHP-2 Assay Kit (BPS Bioscience, #79330) is used to detect SHP2 activity in vitro. First, add 18 μL of Master Mix to 96-well low-adsorption microplate (NUNC, #267342), that is, 0.5 μL of SHP-2 activating Peptide and 5 mM DTT are included in the reaction buffer with a final concentration of 1×. After centrifugation, add 5 μL of the compound to be tested in DMSO (final DMSO content is 1% (V/V) in each well: dissolve the compound to be tested in DMSO to 1 mM, conduct triple dilution with a total of 10 concentration levels ranging from 1 μM to 0.05 nM in the reaction buffer. After diluting SHP2 in 1× reaction buffer to a final concentration of 0.06 nM, add it to the reaction microwell plate, 2 μL per well. Set a full activity control ([…]) and a full inhibition control (without SHP-2) on the reaction plate, and incubate the reaction mixture at room temperature for 60 minutes after centrifugation.
After incubation, add 25 μL of Substrate solution to each well, containing Substrate with a final concentration of 10 μM and DTT with a final concentration of 5 mM, and after centrifugation, continue to incubate at room temperature for 30 minutes. After the reaction, set the excitation wavelength at 340 nm, the emission wavelength at 455 nm, and the gain value to 75 on the Synergy H1 microplate reader (Biotek) for reading.
Take the full activity control and full inhibition control as the values of Max and Min, and calculate the percentage inhibition rate of the wells treated with the compound based on the positive control wells (DMSO control wells) and negative control wells (no kinase added) on the reaction plate, (inhibition rate percentage=100−[(test compound−Min average value)/(Max average value−Min average value)]×100%. IC50 values of test compounds are calculated by fitting percentage of inhibition and ten-point concentration data to a 4-parameter nonlinear logic formula using GraphPad prism.
For the compound `C[C@@H]1OCC2(CCN(c3ccc4c(=O)n(-c5cccc(Cl)c5Cl)c(=O)[nH]c4c3)CC2)C1N` (stereo in doubt) [Compound 1, 7-((3S,4S)-4-amino-3-methyl-2-oxa-8-azaspiro[4.5]decane-8-yl)-3-(2,3-dichlorophenyl)quinazoline-2,4(1H,3H)-dione], the pIC50 (as a rule, −log10 of the IC50, conventionally taken in molar units) was no less than 8.00. Regarding `NC1COCC12CCN(c1ccc3c(=O)n(-c4cccc(Cl)c4Cl)c(=O)[nH]c3c1)CC2` (stereo in doubt) [Compound 2, (S)-7-(4-amino-2-oxa-8-azaspiro[4.5]decane-8-yl)-3-(2,3-dichlorophenyl)quinazoline-2,4(1H,3H)-dione], the pIC50 is no less than 8.00.

In the case of `Nc1nccc(-n2c(=O)[nH]c3cc(N4CCC5(CC4)COCC5N)ccc3c2=O)c1Cl` (stereo in doubt) [Compound 3, (S)-3-(2-amino-3-chloropyridine-4-yl)-7-(4-amino-2-oxa-8-azaspiro[4.5]decane-8-yl)q uinazoline-2,4(1H,3H)-dione], the pIC50 is no less than 8.00. As for `NC1c2cnccc2CC12CCN(c1ccc3c(=O)n(-c4cccc(Cl)c4Cl)c(=O)[nH]c3c1)CC2` (stereo in doubt) [Compound 6, (S)-7-(7-Amino-5,7-dihydrospiro [cyclopenta[c]pyridine-6,4′-piperidine]-1′-yl)-3-(2,3-dichlorophenyl)quinazoline-2,4(1H,3H)-dione], the pIC50 is no less than 8.00. The value for `NC1c2cccnc2CC12CCN(c1ccc3c(=O)n(-c4cccc(Cl)c4Cl)c(=O)[nH]c3c1)CC2` (stereo in doubt) [Compound 7, (S)-7-(5-Amino-5,7-dihydrospiro [cyclopenta[b]pyridine-6,4′-piperidine]-1′-yl)-3-(2,3-dichlorophenyl)quinazoline-2,4(1H,3H)-dione] was no less than 8.00; that for `NC1c2ncccc2CC12CCN(c1ccc3c(=O)n(-c4cccc(Cl)c4Cl)c(=O)[nH]c3c1)CC2` (stereo in doubt) [Compound 8, (S)-7-(7-Amino-5,7-dihydrospiro[cyclopenta[b]pyridine-6,4′-piperidine]-1′-yl)-3-(2,3-dichlorophenyl)quinazoline-2,4(1H,3H)-dione] was no less than 8.00. The value for `N[C@H]1c2ccncc2CC12CCN(c1ccc3c(=O)n(-c4cccc(Cl)c4Cl)c(=O)[nH]c3c1)CC2` [Compound 5, (S)-7-(5-Amino-5,7-dihydrospiro[cyclopenta[c]pyridine-6,4′-piperidine]-1′-yl)-3-(2,3-dichlorophenyl)auinazoline-2.4(1H,3H)-dione] was no less than 8.00; that for `CC1(N)CCN(c2cnc3c(=O)n(-c4cccc(Cl)c4Cl)c(=O)[nH]c3n2)CC1` [Compound 11] was 7.00 to 8.00.

For the compound `N[C@@H]1c2ccccc2CC12CCN(c1cnc3c(=O)n(-c4cccc(Cl)c4Cl)c(=O)[nH]c3n1)CC2` [Compound 13, (S)-7-(1-amino-1,3-dihydrospiro[indene-2,4′-piperidine]-1′-yl)-3-(2,3-dichlorophenyl) pteridine-2,4(1H,3H)-dione], the pIC50 was 7.00 to 8.00. Turning to `N[C@@H]1c2cccnc2CC12CCN(c1cnc3c(=O)n(-c4cccc(Cl)c4Cl)c(=O)[nH]c3n1)CC2` [Compound 14, (S)-7-(5-Amino-5,7-dihydrospiro [cyclopenta[b]pyridine-6,4′-piperidine]-1′-yl)-3-(2,3-dichlorophenyl)pteridine-2,4(1 H,3H)-dione], the pIC50 was 7.00 to 8.00. With `N[C@@H]1c2ccncc2CC12CCN(c1cnc3c(=O)n(-c4cccc(Cl)c4Cl)c(=O)[nH]c3n1)CC2` [Compound 15, (S)-7-(5-Amino-5,7-dihydrospiro [cyclopenta[c]pyridine-6,4′-piperidine]-1′-yl)-3-(2,3-dichlorophenyl)pteridine-2,4(1H,3H)-dione], the negative-log IC50 (pIC50) was 7.00 to 8.00. With `N[C@@H]1c2cnccc2CC12CCN(c1cnc3c(=O)n(-c4cccc(Cl)c4Cl)c(=O)[nH]c3n1)CC2` [Compound 16, (S)-7-(7-Amino-5,7-dihydrospiro [cyclopenta[c]pyridine-6,4′-piperidine]-1′-yl)-3-(2,3-dichlorophenyl)pteridine-2,4(1H,3H)-dione] the figure was 7.00 to 8.00. With `C[C@@H]1OCC2(CCN(c3cnc4c(=O)n(-c5ccnc(N)c5Cl)c(=O)[nH]c4n3)CC2)[C@@H]1N` [Compound 17, 3-(2-amino-3-chloropyridine-4-yl)-7-((3S,4S)-4-amino-3-methyl-2-oxa-8-azaspiro[4.5]decane-8-yl)pteridine-2,4(1H,3H)-dione] the figure was no less than 8.00. The value for `Nc1nccc(-n2c(=O)[nH]c3nc(N4CCC5(CC4)Cc4ccccc4[C@H]5N)cnc3c2=O)c1Cl` [Compound 18, (S)-7-(1-amino-1,3-dihydrospiro[indene-2,4′-piperidine]-1′-yl)-3-(2-amino-3-chloropyridine-4-yl)pteridine-2,4(1H,3H)-dione] was no less than 8.00; that for `Nc1nccc(-n2c(=O)[nH]c3nc(N4CCC5(CC4)Cc4ncccc4[C@H]5N)cnc3c2=O)c1Cl` [Compound 19, (S)-3-(2-amino-3-chloropyridine-4-yl)-7-(5-amino-5,7-dihydrospiro[cyclopenta[b]pyridine-6,4′-piperidine]-1′-yl)pteridine-2,4(1H,3H)-dione] was no less than 8.00.

Regarding `Nc1nccc(-n2c(=O)[nH]c3nc(N4CCC5(CC4)Cc4cnccc4[C@H]5N)cnc3c2=O)c1Cl` [Compound 20, (S)-3-(2-amino-3-chloropyridine-4-yl)-7-(5-amino-5,7-dihydrospiro[cyclopenta[c]pyridine-6,4′-piperidine]-1′-yl)pteridine-2,4(1H,3H)-dione], the pIC50 is no less than 8.00.

Turning to `Nc1nccc(-n2c(=O)[nH]c3nc(N4CCC5(CC4)Cc4ccncc4[C@H]5N)cnc3c2=O)c1Cl` [Compound 21, (S)-3-(2-amino-3-chloropyridine-4-yl)-7-(7-amino-5,7-dihydrospiro[cyclopenta[c]pyridine-6,4′-piperidine]-1′-yl)pteridine-2,4(1H,3H)-dione], the negative-log IC50 (pIC50) is no less than 8.00. Take `Nc1nccc(-n2c(=O)[nH]c3nc(N4CCC5(CC4)Cc4cccnc4[C@H]5N)cnc3c2=O)c1Cl` [Compound 22, (S)-3-(2-amino-3-chloropyridine-4-yl)-7-(7-amino-5,7-dihydrospiro[cyclopenta[b]pyridine-6,4′-piperidine]-1′-yl)pteridine-2,4(1H,3H)-dione]: the pIC50 is no less than 8.00.

In the case of `C[C@@H]1OCC2(CCN(c3cnc4c(=O)n(-c5ccnc(NC6CC6)c5Cl)c(=O)[nH]c4n3)CC2)[C@@H]1N` [Compound 23], the pIC50 was no less than 8.00. The value for `N[C@@H]1c2ccncc2CC12CCN(c1cnc3c(=O)n(-c4ccnc(NC5CC5)c4Cl)c(=O)[nH]c3n1)CC2` [Compound 24] was no less than 8.00; that for `C[C@@H]1OCC2(CCN(c3ccc4c(=O)n(-c5cccc(Cl)c5Cl)c(=O)[nH]c4n3)CC2)[C@@H]1N` [Compound 25, 7-((3S,4S)-4-amino-3-methyl-2-oxa-8-azaspiro[4.5]decane-8-yl)-3-(2,3-dichlorophenyl)pyridinyl[2,3-d]pyrimidine-2,4(1H,3H)-dione] was no less than 8.00.

Consider `N[C@@H]1c2ccncc2CC12CCN(c1ccc3c(=O)n(-c4cccc(Cl)c4Cl)c(=O)[nH]c3n1)CC2` [Compound 26, (S)-7-(5-Amino-5,7-dihydrospiro [cyclopenta[c]pyridine-6,4′-piperidine]-1′-yl)-3-(2,3-dichlorophenyl)pyridinyl[2,3-d]pyrimidine-2,4(1H,3H)-dione], for which the pIC50 is no less than 8.00.
